Here are results for 42 compounds from patent US4294843A, “Anti-protozoal oxadiazole derivatives” (Burroughs Wellcome Co., priority 1978, dated 1981).

Where a name gives a salt, the structure may show the parent alone.

The subject of this experiment is P. berghei. Nature of the experiment: percentage inhibition of P. berghei (blood parasitaemia) in mice, seven oral doses. Format: in vivo. To be noted: Plasmodium berghei, 96 h, parasitaemia on fourth day; for inhibition in vivo at 10 mg/kg: 7 × 10 mg/kg oral; for inhibition in vivo at 100 mg/kg: 7 × 100 mg/kg oral. An excerpt: Groups of five mice were inoculated intraperitoneally with the normal strain of P. berghei. The mice on test received seven oral doses of drug beginning on the afternoon of the day of infection then twice a day for the following three days. Blood parasitaemias were estimated on the fourth day and compared with those of the untreated controls.
The results are given in Table 1, the results being expressed as percentage inhibition of P. berghei.

`CN(C)c1ccccc1SCc1ncon1` [Example 1, 3-(2-Dimethylaminophenylthiomethyl)-1,2,4-oxadiazole]: at 10 mg/kg the inhibition in vivo was 65% and the inhibition in vivo (usually how much of the control response was suppressed) at 100 mg/kg is 100%. `CN(C)c1ccccc1SCc1noc(-c2ccccc2)n1` [Example 2, 3-(2-Dimethylaminophenylthiomethyl)-5-phenyl-1,2,4-oxadiazole] came in with an inhibition in vivo at 100 mg/kg of 83%. For the compound `CNc1ccccc1SCc1ncon1` [Example 4, 3-(2-Methylaminophenylthiomethyl)-1,2,4-oxadiazole], the inhibition in vivo at 10 mg/kg stood at 67% and the inhibition in vivo at 100 mg/kg was 97%. As for `Cc1ccc(SCc2ncon2)c(N)c1` [Example 6, 3-(2-Amino-4-methylphenylthiomethyl)-1,2,4-oxadiazole], the inhibition in vivo at 10 mg/kg is 55% and at 100 mg/kg the inhibition in vivo was 99%.

For `Cc1ccc(N)c(SCc2ncon2)c1` [Example 7, 3-(2-Amino-5-methylphenylthiomethyl)-1,2,4-oxadiazole], the inhibition in vivo at 10 mg/kg amounted to 46% and the inhibition in vivo at 100 mg/kg was 99%. In turn, `Nc1cc(Cl)ccc1SCc1ncon1` [Example 8, 3-(2-Amino-4-chlorophenylthiomethyl)-1,2,4-oxadiazole] showed an inhibition in vivo at 10 mg/kg of 89% and an inhibition in vivo at 100 mg/kg of 100%.

With `Nc1cccc(Cl)c1SCc1ncon1` [Example 9, 3-(2-Amino-6-chlorophenylthiomethyl)-1,2,4-oxadiazole], the inhibition in vivo at 10 mg/kg stood at 32% and 100 mg/kg produced 89.6% inhibition in vivo.

On to `Nc1cc(Br)ccc1SCc1ncon1` [Example 10, 3-(2-Amino-4-bromophenylthiomethyl)-1,2,4-oxadiazole], for which the inhibition in vivo at 10 mg/kg amounted to 85% and 100 mg/kg produced 99% inhibition in vivo. The corresponding values for `Nc1ccccc1SCc1noc(-c2ccc(Cl)cc2)n1` [Example 11, 3-(2-Aminophenylthiomethyl)-5-(4-chlorophenyl)-1,2,4-oxadiazole] are 54% and 99%. For `Nc1ccccc1SCc1noc(CSc2ccccc2N)n1` [Example 13, 3,5-Di-(2-aminophenylthiomethyl)-1,2,4-oxadiazole], testing at 10 mg/kg gave an inhibition in vivo of 77%. For the compound `Nc1ccccc1SCc1noc(-c2ccccc2)n1` [Example 14, 3-(2-Aminophenylthiomethyl)-5-phenyl-1,2,4-oxadiazole], testing at 10 mg/kg gave an inhibition in vivo of 77% and the inhibition in vivo at 100 mg/kg is 100%.

The compound `Cc1nc(CSc2ccccc2N)no1` [Example 15, 3-(2-Aminophenylthiomethyl)-5-methyl-1,2,4-oxadiazole hydrochloride] yielded an inhibition in vivo at 10 mg/kg of 4% and an inhibition in vivo at 100 mg/kg of 86%. The corresponding values for `Nc1cc(F)ccc1SCc1ncon1` [Example 16, 3-(2-Amino-4-fluorophenylthiomethyl)-1,2,4-oxadiazole] are 81% and 100%. `COc1ccc(SCc2ncon2)c(N(C)C)c1` [Example 17, 3-(2-Dimethylamino-4-methoxyphenylthiomethyl)-1,2,4-oxadiazole]: 100 mg/kg produced 62% inhibition in vivo. Still for that read-out and setting: with `CN(C)c1cc(Cl)ccc1SCc1ncon1` [Example 18, 3-(4-Chloro-2-dimethylaminophenylthiomethyl)-1,2,4-oxadiazole] the figure was 95%. Regarding `CCOC(=O)Nc1ccccc1SCc1ncon1` [Example 19, 3-(2-Ethoxycarbonylaminophenylthiomethyl)-1,2,4-oxadiazole], testing at 10 mg/kg gave an inhibition in vivo of 52% and the inhibition in vivo at 100 mg/kg came out at 99.9%.

With `COC(=O)Nc1ccccc1SCc1ncon1` [Example 20, 3-(2-methoxycarbonylaminophenylthiomethyl)-1,2,4-oxadiazole], the inhibition in vivo at 100 mg/kg worked out at 97.5%. The compound `O=C(Nc1ccccc1SCc1ncon1)OCc1ccccc1` [Example 21, 3-(2-Benzyloxycarbonylaminophenylthiomethyl)-1,2,4-oxadiazole] yielded an inhibition in vivo at 10 mg/kg of 68% and an inhibition in vivo at 100 mg/kg of 100%. The corresponding values for `CC(=O)Nc1ccccc1SCc1ncon1` [Example 23, 3-(2-Acetylaminophenylthiomethyl)-1,2,4-oxadiazole] are 38% and 100%. Compound `O=C(Nc1ccccc1SCc1ncon1)c1ccc(Cl)cc1` [Example 25, 3-[2-(4-chlorobenzamido)phenylthiomethyl]-1,2,4-oxadiazole] registered an inhibition in vivo at 10 mg/kg of 64% and an inhibition in vivo at 100 mg/kg of 99.9%.

Compound `O=C(Nc1ccccc1SCc1ncon1)c1ccccc1` [Example 26, 3-(2-Benzamidophenythiomethyl)-1,2,4-oxadiazole] returned an inhibition in vivo at 10 mg/kg of 52%.

For the compound `COc1ccc(C(=O)Nc2ccccc2SCc2ncon2)cc1` [Example 27, 3-[2-(4-Methoxybenzamido)phenylthiomethyl]-1,2,4-oxadiazole], 10 mg/kg produced 73% inhibition in vivo and at 100 mg/kg the inhibition in vivo was 85%. In the case of `CC(C)(C)C(=O)Nc1ccccc1SCc1ncon1` [Example 28, 3-(2-Trimethylacetamidophenylthiomethyl)1,2,4-oxadiazole], the inhibition in vivo at 100 mg/kg is 53%. Regarding `O=C(Nc1ccccc1SCc1ncon1)c1ccco1` [Example 29, 3-(2-Furanoylaminophenylthiomethyl)1,2,4-oxadiazole], the inhibition in vivo at 10 mg/kg was 47% and the inhibition in vivo at 100 mg/kg came to 100%.

`O=C(Nc1ccccc1SCc1ncon1)c1cccs1` [Example 30, 3-(Thiophene-2-carbonylaminophenylthiomethyl)1,2,4-oxadiazole] registered an inhibition in vivo at 10 mg/kg of 59%. Same read-out and setting: with `CS(=O)(=O)Nc1ccccc1SCc1ncon1` [Example 31, 3-(2-Methylsulphonamidophenylthiomethyl)-1,2,4-oxadiazole] the figure was 33%. Take `Cc1ccc(S(=O)(=O)Nc2ccccc2SCc2ncon2)cc1` [Example 32, 3-[2-(p-toluenesulphonamido)phenylthiomethyl]-1,2,4-oxadiazole]: the inhibition in vivo at 100 mg/kg came to 43%. Regarding `S=C(Nc1ccccc1)Nc1ccccc1SCc1ncon1` [Example 33, N-[2-(1,2,4-oxadiazol-3-yl-methylthio)phenyl]-N^1-phenylthiourea], at 10 mg/kg the inhibition in vivo was 10%. `O=C(Nc1ccccc1SCc1ncon1)NC1CCCCC1` [Example 35] registered an inhibition in vivo at 100 mg/kg of 39%.

`O=[N+]([O-])c1ccc(Oc2ccc(NC(=S)Nc3ccccc3SCc3ncon3)cc2)cc1` [Example 36, N-[2-(1,2,4-oxadiazol-3-yl-methylthio)phenyl]-N^1-4-(4-nitrophenyloxy)phenyl thiourea] came in with an inhibition in vivo at 100 mg/kg of 19%. `O=[N+]([O-])c1ccc(Sc2ccc(NC(=S)Nc3ccccc3SCc3ncon3)cc2)cc1` [Example 37, N-[2-(1,2,4-oxadiazol-3-yl-methylthio)phenyl]-N^1-4-(4-nitrophenylthio)phenyl thiourea]: the inhibition in vivo at 10 mg/kg was 50% and the inhibition in vivo at 100 mg/kg turned out to be 22%. The corresponding values for `COc1ccc(C=Nc2ccccc2SCc2ncon2)cc1OC` [Example 38, 3-[2-(3,4-Dimethoxybenzylideneamino)phenylthiomethyl]-1,2,4-oxadiazole] are 9% and 36%.

The compound `COc1ccc(C=Nc2ccccc2SCc2ncon2)cc1` [Example 39, 3-[2-(4-Methoxybenzylideneamino)phenylthiomethyl]-1,2,4-oxadiazole] showed an inhibition in vivo at 10 mg/kg of 73% and an inhibition in vivo at 100 mg/kg of 99.7%. The corresponding values for `Clc1ccccc1C=Nc1ccccc1SCc1ncon1` [Example 40, 3-[2-(2-Chlorobenzylideneamino)phenylthiomethyl]-1,2,4-oxadiazole] are 82% and 100%. `COc1cc(C=Nc2ccccc2SCc2ncon2)cc(OC)c1OC` [Example 41, 3-[2-(3,4,5-Trimethoxybenzylideneamino)phenylthiomethyl]-1,2,4-oxadiazole] yielded an inhibition in vivo at 100 mg/kg of 100%. As to `Clc1ccc(CNc2ccccc2SCc2ncon2)cc1` [Example 42, 3-[2-(4-Chlorobenzylamino)phenylthiomethyl]1,2,4-oxadiazole], 10 mg/kg produced 93% inhibition in vivo and the inhibition in vivo at 100 mg/kg turned out to be 100%.

As to `OC(CNc1ccccc1SCc1ncon1)COc1ccccc1` (stereo not shown) [Example 43, 2-Hydroxy-1-[2-(1,2,4-oxadiazol-3-ylmethylthio)anilino]-3-phenoxypropane], the inhibition in vivo at 10 mg/kg amounted to 24% and the inhibition in vivo at 100 mg/kg was found to be 60%. In the case of `O=[N+]([O-])c1ccccc1SNc1ccccc1SCc1ncon1` [Example 44, 3-[2-(2-Nitrophenylsulphenylamino)phenyl]thiomethyl-1,2,4-oxadiazole], the inhibition in vivo at 100 mg/kg was determined as 27%.

In turn, `CCN(CC)c1ccccc1SCc1ncon1` [Example 45, 3-(2-Diethylaminophenylthiomethyl)-1,2,4-oxadiazole] came in with an inhibition in vivo at 10 mg/kg of 84% and an inhibition in vivo at 100 mg/kg of 100%. In turn, `CCN(C)c1ccccc1SCc1ncon1` [Example 46, 3-[2-(N-ethyl-N-methyl)aminophenylthiomethyl]1,2,4-oxadiazole] returned an inhibition in vivo at 100 mg/kg of 98%. `CN(C)c1ccccc1SCc1noc(CSc2ccc(Cl)cc2)n1` [Example 48, 5-(4-chlorophenylthiomethyl)-3-(2-dimethylaminophenylthiomethyl)-1,2,4-oxadiazole]: the inhibition in vivo at 10 mg/kg was determined as 22% and the inhibition in vivo at 100 mg/kg is 88%. `Nc1ccccc1SCC1=NOCN1` [Example 51, 3-(2-Aminophenylthiomethyl)-4,5-dihydro-1,2,4-oxadiazole]: 10 mg/kg produced 63% inhibition in vivo.
